Assay results taken from patent US8143484B2, “Method for regulating agrobacterium-mediated transformation” (priority 2008, dated 2012).

Legend:
wheat = details: 200 μM instead of the usual 100 μM; cited from earlier work
sorghum = details: acetosyringone alone used to induce vir gene expression; cited from earlier work
lillies = details: addition of acetosyringone; cited from earlier work
[1] = test system: P898012 sorghum immature embryos; assay: Phenolic compound production by infected, cultured sorghum immature embryos (visual exudates); type: cell-based; details: infected and cultured immature zygotic embryos of sorghum (FIG. 3)
Procedure: Transformation was carried out in 6 distinctive but sequential phases. Freshly isolated embryos of P898012 or GS3 were mixed together or separated into 1.5 mL of medium 700 either lacking or containing […] acetosyringone. The concentration of A. tumefaciens harbouring the vector PHP15303 (FIG. 5) in the suspension was adjusted to 0.857×10^9 cfu/mL [Optical Density (OD) approximately 0.6 at 550 nm]. The infection suspension was vortexed gently for 15 seconds, poured into 1 cm-diameter microplates and vacuumed for 5 minutes with gentle rocking for mixing. • 2. The Agrobacterium suspension was then aspirated and the embryos plated on co-cultivation medium 710B either lacking or containing […] acetosyringone for 3 days (co-cultivation) and cultured in the dark at 25° C. • 3. […]
Cultured immature zygotic embryos of the sorghum genotype P898012 produce phenolic compounds which can be visually identified as black/dark brown exudates within the proximity of the embryos on tissue culture medium (FIG. 2 (I) and FIG. 1 (J)). When these immature embryos are infected with A. tumefaciens, higher quantities of these phenolic compounds are produced, especially when the medium on which the embryos are cultured is not supplemented with the synthetic acetosyringone (contrast FIGS. 2 (A & B) vs. FIGS. 2 (D & E)).

## COc1cc(C(C)=O)cc(OC)c1O [acetosyringone, 4-acetyl-2,6-dimethoxyphenol]
wheat
  T-DNA transfer and transformation efficiency: higher levels of T-DNA transfer and transformation efficiency
sorghum
  Agrobacterium transformation efficiency: very low
lillies
  effect on transformation efficiency: does not have any effect on transformation efficiency
[1]
  effect on production of phenolic compounds: depresses the production of phenolic compounds
